Experimental data reported in patent US8404805B2, “Characterization of GRP94-ligand interactions and purification, screening, and therapeutic methods relating thereto” (Duke University, priority 2000, dated 2013).
Values belong to the molecule of their own block, whether it stands above or below them.

Tests used:
GRP94 [1] = target: T1, GRP94 (Sus scrofa, UniProt Q29092); experiment: Polarity-sensitive fluorescent probe binding to GRP94 (fluorescence emission); set-up: GRP94 was purified from porcine pancreas; from tissue; host or cells: porcine pancreas (rough microsomes); species or system porcine; conditions: for probe interaction with native versus heat shocked GRP94 (emission spectra): 0.5 μM GRP94, 5 μM probe, 30 min at 37° C.
GRP94 [2] = target: T1, GRP94; experiment: [3H]-NECA competitive displacement assay; conditions: for competition with [3H]-NECA for binding to GRP94: nominal (80 μM) Mg2+; for relative affinities of binding to GRP94 in excess Mg2+: 10 mM Mg(OAc)2; for effect of excess Mg2+ on binding to GRP94: 10 mM Mg(OAc)2 versus nominal magnesium; for relative affinity of GRP94 for the nucleotide: NECA displacement; for binding to GRP94, nucleoside base specificity by [3H]-NECA displacement: competitors at 50 μM
GRP94 [3] = target: T1, GRP94; experiment: Tryptophan fluorescence of GRP94 (tertiary conformational state); format: biochemical, porcine; set-up: GRP94 was purified from porcine pancreas; from tissue; host or cells: porcine pancreas (rough microsomes); conditions: 50 μM NECA, 50 μM geldanamycin, 2.5 mM ATP or 2.5 mM ADP, 1 hour at 37° C., excitation 295 nm
HSP90 [4] = conditions: Prodromou et al. (1997); cited from earlier work
BiP [5] = experiment: [32P]ATP binding assay; set-up: species or system porcine; conditions: 50 μM [32P]ATP, 1 hour on ice
Protocol: (§1) ATP Binding Assay. Six:g of GRP94, BiP, and Hsp90 was incubated with 50:M (-[^32P] ATP (1000 ΦCi/Φmol) (Amersham Pharmacia Biotech of Piscataway, N.J.) in buffer B on ice for 1 hour. Nitrocellulose filters (BA85) (Schleicher & Schuell of Keene, N.H.) were individually wet in buffer B before use, and bound versus free [^32P]-ATP was separated by vacuum filtration. Filters were washed with 3×2 mL of ice cold buffer B, placed in 5 mL of scintillation fluid, vortexed, and counted.

GRP94 [6] = target: T1, GRP94; experiment: [32P]ATP binding assay; set-up: GRP94 was purified from porcine pancreas; from tissue; host or cells: porcine pancreas (rough microsomes); species or system porcine; conditions: 50 μM [32P]ATP, 1 hour on ice
Protocol: as §1

Hsp90 [7] = experiment: [32P]ATP binding assay; set-up: species or system rat; conditions: 50 μM [32P]ATP, 1 hour on ice
Protocol: as §1

GRP94 [8] = target: T1, GRP94; experiment: GRP94 autophosphorylation assay; format: biochemical, porcine; set-up: GRP94 was purified from porcine pancreas; from tissue; host or cells: porcine pancreas (rough microsomes); conditions: 180 μM NECA or radicicol in 3.6% DMSO, 5 μg/ml heparin, 5 mM GTP
Protocol: (§2) Phosphorylation Assays. […] For the casein kinase assay, 1 unit of casein kinase II was incubated as described above, with the addition of 4:M casein. […] The 25:I reaction mixtures were incubated at 37° C. for 1 hour and quenched by addition of 10% trichloroacetic acid. Samples were analyzed by 10% SDS-PAGE gels and the phosphorylated species were quantitated using a Fuji MACBAS1000™ phosphorimaging system (Fuji Medical Systems of Stamford, Conn.).

casein kinase II = casein kinase II (Homo sapiens, UniProt P68400); experiment: Casein kinase assay; format: biochemical; conditions: 180 μM NECA or radicicol in 3.6% DMSO, 5 μg/ml heparin, 5 mM GTP
Protocol: as §2

GRP94 [9] = target: T1, GRP94; experiment: ATPase assay (HPLC); format: biochemical, porcine; set-up: GRP94 was purified from porcine pancreas; from tissue; host or cells: porcine pancreas (rough microsomes)
Protocol: Samples were then spun through a CENTRICON®-30 (Amicon of Beverly, Mass.) at 10,000 rpm, 4° C. to separate protein from nucleotide. A final concentration of 50 mM (NH4)2HPO4, pH 7.0, and 4:M AMP, pH 7.0, was added to dilutions of the above samples and centrifuged at 15,200 rpm for 5 minutes at 4° C. 100:L of supernatant was then fractionated on a […] column (Alltech of Deerfield, Ill.), using a Series 1050 Hewlett Packard HPLC system. Elution of nucleotides was performed by step gradient elution using a mobile phase of 150 mM (NH4)2HPO4, pH 5.2, at 1.2 ml/min for the first ten minutes, followed by 300 mM (NH4)2HPO4, pH 5.2, at a flow rate of 2 ml/min for the remainder of the elution. In this protocol, ADP and ATP were well resolved, with ADP eluting at 7 minutes and ATP at 12 minutes. Peak height values were used in calculations of percent hydrolysis and ADP formation. Spontaneous hydrolysis was determined for each ATP concentration in paired incubations lacking GRP94. The AMP was used as an internal reference standard to control for equivalent sample loading.

BiP [10] = experiment: [3H]-NECA binding assay (vacuum filtration); conditions: 20 nM [3H]-NECA, 60 min on ice
GRP94 [11] = target: T1, GRP94; experiment: Isothermal titration calorimetry; format: binding, porcine; set-up: GRP94 was purified from porcine pancreas; from tissue; host or cells: porcine pancreas (rough microsomes); conditions: 5 μM GRP94, 152 μM NECA stock, 25° C.
GRP94 [12] = target: T1, GRP94; experiment: [3H]-NECA binding assay (vacuum filtration)
HSP90 [13] = target: HSP90 (Saccharomyces cerevisiae, UniProt P02829); conditions: Roe et al. (1999); cited from earlier work
Chain of HSP90 (Saccharomyces cerevisiae, UniProt P02829) (P02829 whole entry): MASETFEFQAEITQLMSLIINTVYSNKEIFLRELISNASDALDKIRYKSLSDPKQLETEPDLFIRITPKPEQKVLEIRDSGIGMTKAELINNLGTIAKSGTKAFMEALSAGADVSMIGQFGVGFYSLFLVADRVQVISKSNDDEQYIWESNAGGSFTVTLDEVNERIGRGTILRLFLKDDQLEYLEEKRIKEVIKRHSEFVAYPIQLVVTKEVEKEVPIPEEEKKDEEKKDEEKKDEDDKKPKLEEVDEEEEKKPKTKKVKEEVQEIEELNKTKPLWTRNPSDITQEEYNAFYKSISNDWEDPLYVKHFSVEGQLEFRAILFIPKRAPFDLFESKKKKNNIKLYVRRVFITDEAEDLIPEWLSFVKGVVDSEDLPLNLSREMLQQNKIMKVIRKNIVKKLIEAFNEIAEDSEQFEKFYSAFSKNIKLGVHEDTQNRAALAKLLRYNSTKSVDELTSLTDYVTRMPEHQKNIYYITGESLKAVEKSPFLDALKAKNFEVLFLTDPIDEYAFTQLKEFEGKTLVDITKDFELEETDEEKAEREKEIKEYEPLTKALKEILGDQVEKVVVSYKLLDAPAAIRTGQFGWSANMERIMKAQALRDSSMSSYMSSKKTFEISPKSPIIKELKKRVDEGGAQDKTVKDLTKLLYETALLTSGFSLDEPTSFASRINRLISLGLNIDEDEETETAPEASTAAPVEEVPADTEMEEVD

T1 sequence (Q29092 22-804): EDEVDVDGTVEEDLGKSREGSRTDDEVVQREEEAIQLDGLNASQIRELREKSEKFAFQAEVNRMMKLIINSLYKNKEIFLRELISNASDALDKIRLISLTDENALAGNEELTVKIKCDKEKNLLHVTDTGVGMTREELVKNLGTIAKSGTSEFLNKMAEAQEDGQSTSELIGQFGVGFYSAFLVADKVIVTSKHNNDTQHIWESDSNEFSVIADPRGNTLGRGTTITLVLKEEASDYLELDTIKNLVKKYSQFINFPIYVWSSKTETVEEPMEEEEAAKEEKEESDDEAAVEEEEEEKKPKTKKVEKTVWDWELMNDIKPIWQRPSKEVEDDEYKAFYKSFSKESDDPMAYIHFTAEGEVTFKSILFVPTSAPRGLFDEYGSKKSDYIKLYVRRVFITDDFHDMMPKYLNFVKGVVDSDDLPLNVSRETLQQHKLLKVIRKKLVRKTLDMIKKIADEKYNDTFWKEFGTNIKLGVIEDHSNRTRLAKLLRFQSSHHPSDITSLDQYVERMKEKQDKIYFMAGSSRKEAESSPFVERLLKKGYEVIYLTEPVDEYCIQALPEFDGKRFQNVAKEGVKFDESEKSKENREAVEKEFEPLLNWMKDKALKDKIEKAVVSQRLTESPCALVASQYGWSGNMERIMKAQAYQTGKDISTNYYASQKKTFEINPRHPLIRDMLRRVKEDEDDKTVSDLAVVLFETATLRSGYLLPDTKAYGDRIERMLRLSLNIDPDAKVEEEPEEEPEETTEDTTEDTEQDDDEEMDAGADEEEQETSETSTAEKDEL
Chain of casein kinase II (P68400 whole entry): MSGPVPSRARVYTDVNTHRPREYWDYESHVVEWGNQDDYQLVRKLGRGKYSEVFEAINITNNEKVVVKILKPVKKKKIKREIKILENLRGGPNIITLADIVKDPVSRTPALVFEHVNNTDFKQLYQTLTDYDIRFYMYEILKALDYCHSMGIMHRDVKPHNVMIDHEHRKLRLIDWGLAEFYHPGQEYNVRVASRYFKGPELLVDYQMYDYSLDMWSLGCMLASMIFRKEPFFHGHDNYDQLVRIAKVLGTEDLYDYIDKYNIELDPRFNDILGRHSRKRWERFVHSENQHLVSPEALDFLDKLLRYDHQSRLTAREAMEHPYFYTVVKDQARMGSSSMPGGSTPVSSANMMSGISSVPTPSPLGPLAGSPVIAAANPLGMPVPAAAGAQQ
Chain of casein kinase II (P67870 whole entry partner): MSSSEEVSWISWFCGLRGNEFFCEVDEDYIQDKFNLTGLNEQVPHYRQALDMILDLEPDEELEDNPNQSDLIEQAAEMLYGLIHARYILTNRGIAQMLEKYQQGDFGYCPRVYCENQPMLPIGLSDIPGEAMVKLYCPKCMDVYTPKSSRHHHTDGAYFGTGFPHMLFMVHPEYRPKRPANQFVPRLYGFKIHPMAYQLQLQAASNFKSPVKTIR

Molecule: O=S(=O)(O)c1cccc2cccc(Nc3ccccc3)c12 [8-ANS, 1,8-anilinonaphthalenesulfonate]
agonist activity for GRP94 activation (GRP94 [1]): lacks agonist activity
probe interaction with native versus heat shocked GRP94 (emission spectra) (GRP94 [1]): displays weak interactions with native GRP94, yet binds avidly following heat shock

Molecule: Nc1ncnc2c1ncn2[C@@H]1O[C@H](COP(=O)(O)OP(=O)(O)O)[C@@H](O)[C@H]1O [ADP]
competition with [3H]-NECA for binding to GRP94 (GRP94 [2]; 20 nM [3H]-NECA): effectively competed
relative affinities of binding to GRP94 in excess Mg2+ (GRP94 [2]): nearly identical relative affinities
effect of excess Mg2+ on binding to GRP94 (GRP94 [2]): markedly stimulated
relative affinity of GRP94 for the nucleotide (GRP94 [2]): quite low
change of GRP94 tryptophan fluorescence (GRP94 [3]): decreased
affinity of N-terminal domain of Hsp90 for ADP relative to ATP (HSP90 [4]): four

Molecule: Nc1ncnc2c1ncn2[C@@H]1O[C@H](COP(=O)(O)O)[C@@H](O)[C@H]1O [AMP]
competition with [3H]-NECA for binding to GRP94 (GRP94 [2]; 20 nM [3H]-NECA): effectively competed
effect of excess Mg2+ on binding to GRP94 (GRP94 [2]): markedly stimulated
relative affinity of GRP94 for the nucleotide (GRP94 [2]): quite low

Molecule: Nc1ncnc2c1ncn2[C@@H]1O[C@H](COP(=O)(O)OP(=O)(O)OP(=O)(O)O)[C@@H](O)[C@H]1O [ATP]
ATP binding (BiP [5]): displayed the expected ATP binding activity
ATP binding (GRP94 [6]): no ATP binding was observed
ATP binding (Hsp90 [7]): no ATP binding was observed
molar excess required for 50% inhibition of [3H]-NECA binding (GRP94 [2]; 20 nM [3H]-NECA): ~1000 -fold molar excess
competition with [3H]-NECA for binding to GRP94 (GRP94 [2]; 20 nM [3H]-NECA): effectively competed
relative affinities of binding to GRP94 in excess Mg2+ (GRP94 [2]): nearly identical relative affinities
effect of excess Mg2+ on binding to GRP94 (GRP94 [2]): markedly stimulated
relative affinity of GRP94 for the nucleotide (GRP94 [2]): quite low
binding to GRP94, nucleoside base specificity by [3H]-NECA displacement (GRP94 [2]; 20 nM [3H]-NECA): could bind
efficacy of competing NECA binding, ATP relative to ADP (GRP94 [2]; nominal Mg2+): eight
change of GRP94 tryptophan fluorescence (GRP94 [3]): decreased

Molecule: Nc1ccn([C@@H]2O[C@H](COP(=O)(O)OP(=O)(O)OP(=O)(O)O)[C@@H](O)[C@H]2O)c(=O)n1 [CTP]
binding to GRP94, nucleoside base specificity by [3H]-NECA displacement (GRP94 [2]; 20 nM [3H]-NECA): little to no binding

Molecule: Nc1nc2c(ncn2[C@@H]2O[C@H](COP(=O)(O)OP(=O)(O)OP(=O)(O)O)[C@@H](O)[C@H]2O)c(=O)[nH]1 [GTP]
effect on GRP94 autophosphorylation (GRP94-derived kinase) activity (GRP94 [8]): markedly attenuated
binding to GRP94, nucleoside base specificity by [3H]-NECA displacement (GRP94 [2]; 20 nM [3H]-NECA): little to no binding
effect on casein kinase II activity (casein kinase II): markedly attenuated

Molecule: CCNC(=O)[C@H]1O[C@@H](n2cnc3c(N)ncnc32)[C@H](O)[C@@H]1O [NECA, N-ethylcarboxamidoadenosine]
effect on GRP94 ATPase activity (GRP94 [9]): sensitive to inhibition by NECA
effect on GRP94 autophosphorylation (GRP94-derived kinase) activity (GRP94 [8]): neither NECA nor radicicol, both of which bind to the N-terminal nucleotide binding domain of GRP94, significantly inhibit GRP94 derived or casein kinase II activity below the solvent background
effect of excess Mg2+ on binding to GRP94 (GRP94 [2]): without effect
[3H]-NECA binding activity (BiP [10]): not observed
binding stoichiometry by isothermal titration calorimetry (GRP94 [11]): 1.1 mol NECA/mol GRP94 dimer
change of GRP94 tryptophan fluorescence (GRP94 [3]): increased the tryptophan fluorescence
slope of Hill plot (GRP94 [12]): 1.2
[3H]-NECA binding activity (GRP94 [12]; 20 nM [3H]-NECA, 60 min on ice): readily detectable
binding stoichiometry (GRP94 [12]; radioligand, vacuum filtration): 0.5 mol [^3H]-NECA/mol GRP94 monomer
effect on casein kinase II activity (casein kinase II): neither NECA nor radicicol, both of which bind to the N-terminal nucleotide binding domain of GRP94, significantly inhibit GRP94 derived or casein kinase II activity below the solvent background

Molecule: CCC(=O)c1ccc2cc(N(C)C)ccc2c1 [Prodan, 6-propionyl-2-(dimethylamino)naphthalene]
probe interaction with native versus heat shocked GRP94 (emission spectra) (GRP94 [1]): does not interact with the hydrophobic binding pocket(s) displayed by heat shocked GRP94

Molecule: C[C@@H]1C[C@H]2O[C@@H]2/C=C\C=C\C(=O)Cc2c(Cl)c(O)cc(O)c2C(=O)O1 [radicicol]
expected binding stoichiometry (HSP90 [13]): 2 mol radicicol/mol Hsp90 dimer
effect on casein kinase II activity (casein kinase II): neither NECA nor radicicol, both of which bind to the N-terminal nucleotide binding domain of GRP94, significantly inhibit GRP94 derived or casein kinase II activity below the solvent background

Second part, the molecule after the results:

binding to GRP94, nucleoside base specificity by [3H]-NECA displacement (GRP94 [2]; 20 nM [3H]-NECA): little to no binding
Molecule: O=c1ccn([C@@H]2O[C@H](COP(=O)(O)OP(=O)(O)OP(=O)(O)O)[C@@H](O)[C@H]2O)c(=O)[nH]1 [UTP]

relative displacement activity of [3H]-NECA (GRP94 [2]; 20 nM [3H]-NECA): approximating that observed for ADP
effect of excess Mg2+ on binding to GRP94 (GRP94 [2]): without effect
Molecule: Nc1ncnc2c1ncn2[C@@H]1O[C@H](CO)[C@@H](O)[C@H]1O [adenosine]

binding to GRP94, nucleoside base specificity by [3H]-NECA displacement (GRP94 [2]; 20 nM [3H]-NECA): could bind
Molecule: Nc1ncnc2c1ncn2[C@H]1C[C@H](O)[C@@H](COP(=O)(O)OP(=O)(O)OP(=O)(O)O)O1 [deoxyATP]

effect on GRP94 autophosphorylation (GRP94-derived kinase) activity (GRP94 [8]): markedly attenuated
effect on casein kinase II activity (casein kinase II): markedly attenuated
Molecule: heparin
